In patent EP0402033A1, “Carboxamide derivatives” (OTSUKA PHARMACEUTICAL FACTORY, INC., priority 1989, dated 1990):

Tests used:
erythrocytes = test: Pharmacological Test - 2 (Hemolysis test) in mice after oral administration; format: in vivo, ddY-strain male mice; settings: ddY male mice, 600 mg/5 ml/kg/day for 10 days, 20 hours fasting, mean of test group divided by mean of control group
Description: Seven-week-old ddY-strain male mice were used as test animals. One test group consisting of six (6) mice. A test compound was suspended in a 0.5%-carboxymethyl cellulose (CMC) aqueous solution, thus prepared suspension containing the test compound was orally administered compulsorily by using a sonde to the mouse in the amount of 600 mg/5 ml/kg/day for 10 days. Similar to the above, to each of six mice in the control group was administered with 0.5%-CMC aqueous soluiton without containing the test compound.
After the final administration was finished, the mouse was fasted for 20 hours, then the mouse was subjected to dissection and the blood sample as well as the sample of the spleen were taken by enucleation. The number of the erythrocytes was counted and the weight of the spleen was measured.
The ratio of number of the erythrocytes was calculated by dividing the mean value of number of the erythrocytes obtained from the test group by the mean value of number of the erythrocytes obtained from the control group. Similarly, the ratio of weight of the spleen was calculated by dividing the mean value of weight of the spleen obtained from the test group by the mean value of weight of the spleen obtained from the control group.

[1] = system: plasma high density lipoprotein cholesterol (HDLC); test: Pharmacological Test - 1: increase of plasma HDLC concentration in rats after oral administration; format: in vivo, Wistar strain male rats; settings: Wistar male rats, 300 mg/5 ml/kg/day for 2 days in 0.5%-CMC, blood taken after 20 hours fasting, relative to control group
Description: Seven-week-old Wistar strain male rats were used as the test animals. One test group consisting of six (6) rats. A test compound was suspended in a 0.5%-carboxymethyl cellulose (CMC) aqueous solution, thus prepared suspension containing the test compound was orally administered compulsorily by using a sonde to the rat in the amount of 300 mg/5 ml/kg/day for 2 days. Similar to the test group, to each of six (6) rats in the control group was administered with 0.5%-CMC aqueous solution without containing the test compound.
After the final administration was finished, the test rat was fasted for 20 hours, and the blood sample was taken from the rat. The concentration of plasma high density lipoprotein cholesterol (HDLC) was determined by using a measuring instrument of HDL-C kit-N (manufactured by Nihon Shoji Kabushiki Kaisha).
Increasing ratio (%) of plasma HDLC concentration performed by a test compound was calculated from the formula as follows: [formula]

For `CCOP(=O)(Cc1ccc(C(=O)Nc2ccc(Br)cc2C#N)cc1)OCC` [Compound of Example 1, 4-diethoxyphosphinoylmethyl-N-(4-bromo-2-cyanophenyl)benzamide], the “Ratio of number of the erythrocytes” value (erythrocytes) was 0.96, the “Ratio of weight of the spleen” value (erythrocytes) was 1.13 and the “Increasing ratio (%) of the plasma HDLC concentration” value (from here on “Increasing ratio (%)”) [1] was 193%.
`CCOP(=O)(Cc1ccc(C(=O)Nc2ccc(Cl)cc2C#N)cc1)OCC` [Compound of Example 2] was tested, and the “Ratio of number of the erythrocytes” value (erythrocytes) was 0.97, the “Ratio of weight of the spleen” value (erythrocytes) was 1.09 and the “Increasing ratio (%)” value [1] was 196%.
For `CCOP(=O)(Cc1ccc(C(=O)Nc2ccc(C#N)cc2Cl)cc1)OCC` [Compound of Example 3], the “Increasing ratio (%)” value [1] was 187%.
`CCOP(=O)(Cc1ccc(C(=O)Nc2ccc(I)cc2C#N)cc1)OCC` [Compound of Example 4] was tested, and the “Increasing ratio (%)” value [1] was 187%.
For `CCOP(=O)(Cc1ccc(C(=O)Nc2ccc(C#N)cc2Br)cc1)OCC` [Compound of Example 5], the “Ratio of number of the erythrocytes” value (erythrocytes) was 1.07, the “Ratio of weight of the spleen” value (erythrocytes) was 0.94 and the “Increasing ratio (%)” value [1] was 222%.
`CCOP(=O)(Cc1ccc(C(=O)Nc2ccc(C#N)cc2I)cc1)OCC` [Compound of Example 7] was tested, and the “Increasing ratio (%)” value [1] was 184%.
